From patent publication US20230097753A1, “ALPHA-HYDROXYLATED FATTY-ACID METABOLITES, MEDICAL USES AND USE AS BIOMARKERS” (UNIVERSITAT DE LES ILLES BALEARS, priority 2020, published 2023)

Test: Brain fatty acid levels in WT and 5xFAD mice after chronic oral treatment
Assay type: in vivo, mouse
Details: for Brain levels after treatment with DHA-H sodium salt: oral 5-200 mg/kg, 4 months
Protocol: FIG. 2. […] Brain levels of HPA (Al) or DHA (A2) (nmoles/mg of protein) are represented in the ordinate axis, with respect to treatment doses with the sodium salt of DHA-H (A1) and the sodium salt of DHA (A1 and A2) (mg/kg). A1: • animals WT; ∘ 5xFAD. A2: Black bars refer to WT animals and white bars to 5xFAD. The levels of HPA and DHA were determined in the brain of WT and 5xFAD mice after chronic administration of DHA-H sodium salt (4 months; 5 doses/week M-F; between 3 and 7 months of age; sacrifice at 7 months). HPA accumulates in the brain of both mouse strains similarly, depending on the dose of DHA-H sodium salt administered (A1: • r2=0.9292, p=0.0002; ∘ r2=0.9704, p<0.0001). […] Data are shown as mean±standard error, and statistical analysis was done by one-way ANOVA and Tukey multiple evaluation test: *p<0.05 compared to control (mice treated with vehicle). Therefore, when the prodrug DHA-H, in particular its sodium salt, is administered in healthy mice and transgenic models of Alzheimer's disease, a significant accumulation of HPA occurs at the brain level, without the presence of the prodrug (DHA-H) being detected, nor changes in endogenous levels of DHA. […] The number of total errors (B1), reference memory errors (RME) (B2) or working memory errors (WME) (B3), committed, are represented in the ordinate axis against the brain levels of HPA (nmol/mg of protein) in the abscissa axis. The cognitive assessment was done by testing the 8-arm radial labyrinth during the last month of treatment of the same animals shown in FIG. 2A. Individual experimental points from the entire study animal population were plotted and the data from the 5xFAD animals were adjusted to an inverse polynomial regression f(x)=y0+(a/x). The values of r^2 and p corresponding to the regression of each parameter are shown below: total errors, RME and WME versus the brain concentration of HPA: C1: r^2=0.9146 and p=0.0311; C2: r^2=0.9252 and p=0.0243; C3: r^2=0.7785 and p=0.0346. […]

Compound | Brain DHA levels after treatment | Brain levels after treatment with DHA-H sodium salt
CCC=CCC=CCC=CCC=CCC=CCC=CCC(O)C(=O)O (stereo not drawn) [DHA-H, 2-hydroxy-drocosahexaenoic acid] | did not vary significantly | undetectable in the brain
CC/C=C\C/C=C\C/C=C\C/C=C\C/C=C\CCCCC(=O)O [HPA, (6Z,9Z,12Z,15Z,18Z)-heneicosa-6,9,12,15,18-pentaenoic acid] |  | dose-dependent brain accumulation
